{"source": "patent US8426420B2", "about": "“Heterocyclic pyrazole-carboxamidesas P2Y12 antagonists” (Sanofi, priority 2007, dated 2013)"}
{"tested_on": "human platelet rich plasma", "assay": "Inhibition of human platelet aggregation, 96-well assay", "assay_type": "cell-based", "conditions": "ADP-induced aggregation, human platelet rich plasma, 96-well plates, AUC of absorbance over 20 minutes", "procedure": "(§1) Inhibition of Human Platelet Aggregation\n(§2) Alternatively to a binding assay which measures a compound's ability to bind to the P2Y12 receptor, the effect on cellular function was also determined. This ability of the compound was evaluated in two platelet aggregation assays: in 96-well plates and with the “Born”-method using single cuvettes.\n(§3) Whole blood was collected from healthy volunteers using 20 ml syringes containing 2 ml of ACD-A Aqua-Citrat-Dextrose-A, Fresenius). The anticoagulated whole blood was transferred into 15 ml polypropylene conical tubes (10 ml per tube). The tubes were centrifuged for 15 minutes at 150×g at RT without using the centrifuge brake. This procedure leads to a pellet of cellular components and a supernatant of platelet rich plasma (PRP). The PRP layer was collected from each tube and pooled for each donor. To avoid carry over of cellular components following centrifugation, approximately 5 ml of PRP was left in the tube. The platelet concentration was determined using a Coulter Counter.\n(§4) The 15 ml tubes containing the pellet of cellular components were centrifuged again for 10 minutes at 1940×g. This pelleted out most particulate blood constituents remaining, leaving a layer of Platelet Poor Plasma (PPP). The PPP was collected for each donor. The PRP layer, previously set aside, was diluted with PPP to a final concentration of approximately 3×E8 platelets/ml with the PPP.\n(§5) The human platelet aggregation assay is performed in 96-well plates using a microtiter plate reader (SpectraMax Plus 384 with SoftMax Pro software from Molecular Devices). In the plate 15 μl of test compound at 10× final concentration in NaCl is mixed with 120 μl fresh PRP and incubated for 5 minutes. Following that incubation period, 15 μl of 40 μM ADP is added to the reaction mix. This addition of ADP is sufficient to induce aggregation in the absence of an inhibitor. The plates are then transferred to the microplate reader and aggregation is measured over 20 minutes. The instrument settings include:\n(§6) Absorbance at 650 nm, run time 20 minutes with readings in 1-minute intervals and 50 seconds shaking between readings all performed at 37° C.", "units": {"IC50": "nM"}}
{"smiles": "CCOC(=O)N1CCN(C(=O)[C@H](CCC(=O)O)NC(=O)c2cc(OCC(=O)N3CC(F)(F)C[C@H]3C(=O)NC3CC3)n(-c3ccccc3)n2)CC1", "note": "[Example 165, 4-[(S)-4-Carboxy-2-({5-[2-((S)-2-cycloproylcarbamoyl-4,4-difluoro-pyrrolidin-1-yl)-2-oxo-ethoxy]-1-phenyl-1H-pyrazole-3-carbonyl}-amino)-butyryl]-piperazine-1-carboxylic acid ethyl ester]", "IC50": 340}
{"smiles": "CCOC(=O)N1CCN(C(=O)[C@H](CCC(=O)O)NC(=O)c2cc(OCC(=O)N3CC(F)(F)C[C@H]3C(=O)NCC3CC3)n(-c3ccccc3)n2)CC1", "note": "[Example 166, 4-[(S)-4-Carboxy-2-({5-[2-((S)-2-(cycloproylmethyl-carbamoyl)-4,4-difluoro-pyrrolidin-1-yl)-2-oxo-ethoxy]-1-phenyl-1H-pyrazole-3-carbonyl}-amino)-butyryl]-piperazine-1-carboxylic acid ethyl ester]", "IC50": 80}
{"tested_on": "human platelet rich plasma", "assay": "Inhibition of human platelet aggregation, 96-well assay", "assay_type": "cell-based", "conditions": "Homo sapiens, Platelet, 20 min", "procedure": "as §1, §2, §3, §4, §5, §6", "units": {"IC50": "nM"}}
{"smiles": "CCOC(=O)N1CCN(C(=O)[C@H](CCC(=O)O)NC(=O)c2cc(OCC(=O)N3CCC[C@H]3c3nc(C4CC4)no3)n(-c3ccccc3)n2)CC1", "note": "[Example 180, 4-{(S)-4-Carboxy-2-[(5-{2-[(S)-2-(3-cyclopropyl-[1,2,4]oxadiazol-5-yl)-pyrrolidin-1-yl]-2-oxo-ethoxy}-1-phenyl-1H-pyrazole-3-carbonyl)-amino]-butyryl}-piperazine-1-carboxylic acid ethyl ester]", "IC50": 450}
{"smiles": "CCCOC(=O)N1CCN(C(=O)[C@H](CCC(=O)OC)NC(=O)c2cc(OCC(=O)N3CCC[C@H]3C(=O)NC3CCC3)n(-c3ccccc3)n2)CC1", "note": "[Example 190, 4-[(S)-2-({5-[2-((S)-2-Cyclobutylcarbamoyl-pyrrolidin-1-yl)-2-oxo-ethoxy]-1-phenyl-1H-pyrazole-3-carbonyl}-amino)-4-methoxycarbonyl-butyryl]-piperazine-1-carboxylic acid propyl ester]", "IC50": 180}
{"smiles": "C[C@H](NC(=O)c1cc(OCC(=O)N2CCC[C@H]2C(=O)NC2CCC2)n(-c2ccccc2)n1)C(=O)N1CCN(C(=O)OC2CCC2)CC1", "note": "[Example 193, 4-[(S)-2-({5-[2-((S)-2-Cyclobutylcarbamoyl-pyrrolidin-1-yl)-2-oxo-ethoxy]-1-phenyl-1H-pyrazole-3-carbonyl}-amino)-propionyl]-piperazine-1-carboxylic acid cyclobutyl ester]", "IC50": 460}
{"smiles": "CCOC(=O)N1CCN(C(=O)[C@H](CCC(=O)OCCCOC)NC(=O)c2cc(OCC(=O)N3CCC[C@H]3C(=O)NC3CCC3)n(-c3ccccc3)n2)CC1", "note": "[Example 200, 4-[(S)-2-({5-[2-((S)-2-Cyclobutylcarbamoyl-pyrrolidin-1-yl)-2-oxo-ethoxy]-1-phenyl-1H-pyrazole-3-carbonyl}-amino)-4-(3-methoxy-propoxycarbonyl)-butyryl]-piperazine-1-carboxylic acid ethyl ester]", "IC50": 420}
{"smiles": "CCOC(=O)N1CCN(C(=O)[C@H](CCC(=O)OCCN2CCOCC2)NC(=O)c2cc(OCC(=O)N3CCC[C@H]3C(=O)NC3CCC3)n(-c3ccccc3)n2)CC1", "note": "[Example 201, 4-[(S)-2-({5-[2-((S)-2-Cyclobutylcarbamoyl-pyrrolidin-1-yl)-2-oxo-ethoxy]-1-phenyl-1H-pyrazole-3-carbonyl}-amino)-4-(2-morpholin-4-yl-ethoxycarbonyl)-butyryl]-piperazine-1-carboxylic acid ethyl ester]", "IC50": 570}
{"smiles": "CCOC(=O)N1CCN(C(=O)[C@H](CCC(=O)OCC2CCOC2)NC(=O)c2cc(OCC(=O)N3CCC[C@H]3C(=O)NC3CCC3)n(-c3ccccc3)n2)CC1", "note": "(stereo partly drawn) [Example 202, 4-[(S)-2-({5-[2-((S)-2-Cyclobutylcarbamoyl-pyrrolidin-1-yl)-2-oxo-ethoxy]-1-phenyl-1H-pyrazole-3-carbonyl}-amino)-4-(tetrahydro-furan-3-ylmethoxycarbonyl)-butyryl]piperazine-1-carboxylic acid ethyl ester]", "IC50": 840}
{"smiles": "CCOC(=O)N1CCN(C(=O)[C@H](CCC(=O)OCC2(C)COC2)NC(=O)c2cc(OCC(=O)N3CCC[C@H]3C(=O)NC3CCC3)n(-c3ccccc3)n2)CC1", "note": "[Example 203, 4-[(S)-2-({5-[2-((S)-2-Cyclobutylcarbamoyl-pyrrolidin-1-yl)-2-oxo-ethoxy]-1-phenyl-1H-pyrazole-3-carbonyl}-amino)-4-(3-methyl-oxetan-3-ylmethoxycarbonyl)-butyryl]-piperazine-1-carboxylic acid ethyl ester]", "IC50": 490}
{"smiles": "CCOC(=O)N1CCN(C(=O)[C@H](CCC(=O)OCC2(CC)COC2)NC(=O)c2cc(OCC(=O)N3CCC[C@H]3C(=O)NC3CCC3)n(-c3ccccc3)n2)CC1", "note": "[Example 204, 4-[(S)-2-({5-[2-((S)-2-Cyclobutylcarbamoyl-pyrrolidin-1-yl)-2-oxo-ethoxy]-1-phenyl-1H-pyrazole-3-carbonyl}-amino)-4-(3-ethyl-oxetan-3-ylmethoxycarbonyl)-butyryl]-piperazine-1-carboxylic acid ethyl ester]", "IC50": 720}
{"smiles": "CCOC(=O)N1CCN(C(=O)[C@H](CCC(=O)OCCC(C)OC)NC(=O)c2cc(OCC(=O)N3CCC[C@H]3C(=O)NC3CCC3)n(-c3ccccc3)n2)CC1", "note": "(stereo partly drawn) [Example 205, 4-[(S)-2-({5-[2-((S)-2-Cyclobutylcarbamoyl-pyrrolidin-1-yl)-2-oxo-ethoxy]-1-phenyl-1H-pyrazole-3-carbonyl}-amino)-4-(3-methoxy-butoxycarbonyl)-butyryl]-piperazine-1-carboxylic acid ethyl ester]", "IC50": 460}
{"smiles": "CCOC(=O)N1CCN(C(=O)[C@H](CC(C)C)NC(=O)c2cc(OCC(=O)N3CCC[C@H]3C(=O)NC3CCC3)n(-c3ccccc3)n2)CC1", "note": "[Example 215, 4-[(S)-2-({5-[2-((S)-2-Cyclobutylcarbamoyl-pyrrolidin-1-yl)-2-oxo-ethoxy]-1-phenyl-1H-pyrazole-3-carbonyl}-amino)-4-methyl-pentanoyl]-piperazine-1-carboxylic acid ethyl ester]", "IC50": 950}
{"smiles": "O=C(NCC(=O)N1CCN(C(=O)[C@H]2C[C@@H]2F)CC1)c1cc(OCC(=O)N2CCC[C@H]2C(=O)NC2CCC2)n(-c2ccccc2)n1", "note": "[Example 245, 5-[2-((S)-2-Cyclobutylcarbamoyl-pyrrolidin-1-yl)-2-oxo-ethoxy]-1-phenyl-1H-pyrazole-3-carboxylic acid {2-[4-((1R,2S)-2-fluoro-cyclopropanecarbonyl)-piperazin-1-yl]-2-oxo-ethyl}-amide]", "IC50": 800}
{"smiles": "O=C(NCC(=O)N1CCN(C(=O)[C@@H]2C[C@H]2c2ccccc2)CC1)c1cc(OCC(=O)N2CCC[C@H]2C(=O)NC2CCC2)n(-c2ccccc2)n1", "note": "[Example 246, 5-[2-((S)-2-Cyclobutylcarbamoyl-pyrrolidin-1-yl)-2-oxo-ethoxy]-1-phenyl-1H-pyrazole-3-carboxylic acid {2-oxo-2-[4-((1R,2R)-2-phenyl-cyclopropanecarbonyl)-piperazin-1-yl]-ethyl}-amide]", "IC50": 560}
{"smiles": "CCOCCOC(=O)N1CCN(C(=O)CNC(=O)c2cc(OCC(=O)N3CCC[C@H]3C(=O)NC3CCC3)n(-c3ccccc3)n2)CC1", "note": "[Example 257, 4-[2-({5-[2-((S)-2-Cyclobutylcarbamoyl-pyrrolidin-1-yl)-2-oxo-ethoxy]-1-phenyl-1H-pyrazole-3-carbonyl}-amino)-acetyl]-piperazine-1-carboxylic acid 2-ethoxy-ethyl ester]", "IC50": 240}
{"smiles": "O=C(NCC(=O)N1CCN(C(=O)OCc2ccccc2)CC1)c1cc(OCC(=O)N2CCC[C@H]2C(=O)NC2CCC2)n(-c2ccccc2)n1", "note": "[Example 275, 4-[2-({5-[2-((S)-2-Cyclobutylcarbamoyl-pyrrolidin-1-yl)-2-oxo-ethoxy]-1-phenyl-1H-pyrazole-3-carbonyl}-amino)-acetyl]-piperazine-1-carboxylic acid benzyl ester]", "IC50": 490}
